The text below walks through data of patent publication US12605451B2, “Targeted plasma protein degradation” (Novartis AG, priority 2020, dated 2026).

The structures appear in SMILES notation.

One assay addresses T1, FHR3 (Homo sapiens, UniProt Q02985).
T1 construct: Purified FHR3 with C-terminal biotinylated Avitag was used for the assay
T1 sequence (Q02985 19-330): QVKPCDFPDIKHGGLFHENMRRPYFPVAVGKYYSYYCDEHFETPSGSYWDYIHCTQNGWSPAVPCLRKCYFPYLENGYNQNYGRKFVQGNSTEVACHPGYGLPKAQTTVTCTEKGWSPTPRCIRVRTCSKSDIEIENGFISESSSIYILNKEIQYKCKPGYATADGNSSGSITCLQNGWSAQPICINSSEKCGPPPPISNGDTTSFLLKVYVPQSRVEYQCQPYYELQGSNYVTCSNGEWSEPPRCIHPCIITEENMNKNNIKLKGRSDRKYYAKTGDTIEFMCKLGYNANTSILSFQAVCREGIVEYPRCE
The assay is described as follows: SPR binding to biotinylated FHR3 (Proteon XPR36). Conditions: Bifunctional Compound. How it is done: SPR was used to obtain the binding data for FHR3 receptor ligands compounds (C12), (C13), (C14), (C15) and (C16), either alone or as part of the bifunctional compounds (BFC13), (BFC14), (BFC15), (BFC16) and (BFC17), respectively.
SPR Binding experiments were performed on a Proteon XPR36 instrument (Bio-Rad Laboratories). Purified FHR3 with C-terminal biotinylated Avitag was used for the assay. Biotinylated FHR3 was incubated with fivefold molar excess of bifunctional compounds (BFC13), (BFC14), (BFC15), (BFC16) or (BFC17), or compounds (C12), (C13), (C14), (C15) or (C16), and immobilized onto a Neutravidin coated sensor chip. (NLC chip, Bio-Rad Laboratories, Inc). […]
To perform sandwich SPR binding assays, His-ASGPR1 (62-291) protein stocks were diluted with running buffer to a desired concentration. […] Sensorgrams were recorded for association and dissociation phases. All sensorgrams were processed by subtracting the binding response recorded from a blank control surfaces (or interspot surfaces), followed by subtracting buffer blank injections from the reaction surface. […]
(In general: In SPR one partner is held on a chip, and binding of the other changes the refractive index at the surface.)

A further assay deals with T2, human ASGPR1 (Homo sapiens, UniProt P07306).
T2 construct: Recombinant extracellular domain of human ASGPR1 with N-terminal biotinylated Avitag
T2 sequence (P07306 62-291 limits assumed): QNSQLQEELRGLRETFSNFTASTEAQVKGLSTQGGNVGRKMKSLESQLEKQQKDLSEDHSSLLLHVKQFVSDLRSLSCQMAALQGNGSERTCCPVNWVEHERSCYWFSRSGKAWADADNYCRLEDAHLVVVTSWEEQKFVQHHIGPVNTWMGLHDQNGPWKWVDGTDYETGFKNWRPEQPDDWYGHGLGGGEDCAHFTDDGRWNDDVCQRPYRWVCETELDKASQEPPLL
As to the kind of experiment: ASGPR1 SPR direct binding (Biacore, SA chip). Conditions: Bifunctional Compound (FHR3 series), Table 7, read-out: ASGRR KD. How it is done: SPR was used to obtain the binding data for ASGP receptor ligand compound (int-CC2), either alone or as part of the bifunctional compounds (BFC-13), (BFC-15) and (BFC16).
(§1) ASGPR1 SPR experiments were performed on either Biacore T200 or Biacore 8K. The assay was optimized for Biacore (Streptavidin) SA chip in running buffer consisting of 20 mM HEPES, 300 mM NaCl, 2 mM CaCl2, 0.01% tween-20, 2% DMSO, pH 7.4. Recombinant extracellular domain of human ASGPR1 with N-terminal biotinylated Avitag was diluted to 20 μg/mL in running buffer, and immobilized onto SA chip after it was preconditioned with at least four 60-second injections at 30 uL/min of 1 M NaCl/40 mM NaOH solution. Protein immobilization level varied from 500 RU to 3500 RU dependent on analytes' molecular weight, for targeted Rmax of 30 RUs. Direct binding of analytes to ASGPR1 was observed when a dose response titration of analytes in 2% DMSO was flown over the immobilized protein. Data analysis was done on either Biacore T200 Evaluation Software or Biacore Insight Evaluation Software.
SPR was used to obtain the binding data for ASGP receptor ligand compounds (int-CC2), either alone or as part of the bifunctional compounds (BFC1).
as §1, with “Biacore” for “Biacore (Streptavidin)”

By Kd is commonly meant a measure of binding affinity in units of concentration. Take `CC(=O)N[C@H]1[C@H](OCCCCC(=O)NCCCNC(=O)CCOCC(COCCC(=O)NCCCNC(=O)CCCCO[C@@H]2O[C@H](CO)[C@H](O)[C@H](O)[C@H]2NC(C)=O)(COCCC(=O)NCCCNC(=O)CCCCO[C@@H]2O[C@H](CO)[C@H](O)[C@H](O)[C@H]2NC(C)=O)NC(=O)CCOCCOCCOCCOCCOCCOCCOCCOCCOCCC(=O)NCCCC[C@@H]2NC(=O)[C@H](Cc3ccc(O)cc3)NC(=O)[C@H](CC(N)=O)NC(=O)[C@H](C(C)C)NC(=O)[C@H](CO)NC(=O)[C@H](Cc3ccccc3)N(C)C(=O)[C@H](CCCNC(=N)N)NC(=O)[C@H](Cc3ccccc3)NC(=O)CSC[C@@H](C(=O)NCC(N)=O)NC(=O)[C@H](Cc3ccccc3)N(C)C(=O)[C@H](CC(N)=O)NC(=O)[C@@H]3Cc4ccccc4CN3C(=O)[C@H](CC(=O)O)NC(=O)[C@H](CCCNC(=N)N)NC2=O)O[C@H](CO)[C@H](O)[C@@H]1O` [BFC-15]: the Kd on FHR3 is 301 nM; at human ASGPR1, 0.45 nM.
